Source: ChEMBL document CHEMBL5150023, “The Pursuit of Enzyme Activation: A Snapshot of the Gold Rush” (J Med Chem, 2022)

Legend:
[1] = target: T1, NAD-dependent protein deacetylase sirtuin-1 (Homo sapiens) (UniProt Q96EB6); experiment: Activation of human N-terminal hexa-histidine tagged SIRT1 expressed in Escherichia coli BL21 (DE3) using peptide substrate by fluorescence polarization assay relative to control; conditions: filed as activator
T1 sequence (whole entry): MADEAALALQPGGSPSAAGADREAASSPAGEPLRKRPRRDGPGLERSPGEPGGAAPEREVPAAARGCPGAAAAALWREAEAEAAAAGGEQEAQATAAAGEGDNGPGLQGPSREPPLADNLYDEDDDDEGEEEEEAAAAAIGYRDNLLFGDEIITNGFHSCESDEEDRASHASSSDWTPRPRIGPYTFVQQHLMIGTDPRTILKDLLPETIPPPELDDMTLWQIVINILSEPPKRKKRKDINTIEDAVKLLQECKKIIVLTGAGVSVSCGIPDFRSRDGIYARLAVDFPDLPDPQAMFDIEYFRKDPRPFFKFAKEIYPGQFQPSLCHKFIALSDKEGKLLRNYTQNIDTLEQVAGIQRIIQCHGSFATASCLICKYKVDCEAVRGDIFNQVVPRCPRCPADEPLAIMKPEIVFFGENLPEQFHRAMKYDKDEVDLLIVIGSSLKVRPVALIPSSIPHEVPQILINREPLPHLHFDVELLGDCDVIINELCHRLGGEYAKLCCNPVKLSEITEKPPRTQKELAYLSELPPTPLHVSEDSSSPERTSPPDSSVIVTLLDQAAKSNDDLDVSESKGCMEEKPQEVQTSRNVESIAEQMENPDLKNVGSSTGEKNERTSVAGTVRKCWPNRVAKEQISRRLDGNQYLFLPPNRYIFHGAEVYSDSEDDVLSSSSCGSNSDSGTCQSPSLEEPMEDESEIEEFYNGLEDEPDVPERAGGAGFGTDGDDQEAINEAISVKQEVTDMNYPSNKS

[2] = target: T1, NAD-dependent protein deacetylase sirtuin-1 (Homo sapiens); experiment: Activation of human N-terminal hexa-histidine tagged SIRT1 expressed in Escherichia coli BL21 (DE3) using peptide substrate by fluorescence polarization assay; conditions: filed as activator
Homo sapiens = species on record: Homo sapiens; experiment: Activation of human G6PD canton (R459L) mutant assessed as restoration of activity using G6P as substrate incubated for 3 hrs d by substrate addition and mesured after 2.5 mins by diaphorase-coupled enzyme assay relative to wild type G6PD activity percentage
[3] = Activation of human G6PD canton (R459L) mutant assessed as restoration of activity using G6P as substrate incubated for 3 hrs d by substrate addition and mesured after 2.5 mins by diaphorase-coupled enzyme assay
[4] = target: T2, Serine/threonine-protein kinase ULK1 (Homo sapiens) (UniProt O75385); experiment: Agonist activity at ULK1 (unknown origin) expressed in HEK293T cells at 100 nM incubated for 60 mins by ADP-Glo luminescence assay relative to control; assay type: cell-based; conditions: filed as agonist
T2 sequence (whole entry): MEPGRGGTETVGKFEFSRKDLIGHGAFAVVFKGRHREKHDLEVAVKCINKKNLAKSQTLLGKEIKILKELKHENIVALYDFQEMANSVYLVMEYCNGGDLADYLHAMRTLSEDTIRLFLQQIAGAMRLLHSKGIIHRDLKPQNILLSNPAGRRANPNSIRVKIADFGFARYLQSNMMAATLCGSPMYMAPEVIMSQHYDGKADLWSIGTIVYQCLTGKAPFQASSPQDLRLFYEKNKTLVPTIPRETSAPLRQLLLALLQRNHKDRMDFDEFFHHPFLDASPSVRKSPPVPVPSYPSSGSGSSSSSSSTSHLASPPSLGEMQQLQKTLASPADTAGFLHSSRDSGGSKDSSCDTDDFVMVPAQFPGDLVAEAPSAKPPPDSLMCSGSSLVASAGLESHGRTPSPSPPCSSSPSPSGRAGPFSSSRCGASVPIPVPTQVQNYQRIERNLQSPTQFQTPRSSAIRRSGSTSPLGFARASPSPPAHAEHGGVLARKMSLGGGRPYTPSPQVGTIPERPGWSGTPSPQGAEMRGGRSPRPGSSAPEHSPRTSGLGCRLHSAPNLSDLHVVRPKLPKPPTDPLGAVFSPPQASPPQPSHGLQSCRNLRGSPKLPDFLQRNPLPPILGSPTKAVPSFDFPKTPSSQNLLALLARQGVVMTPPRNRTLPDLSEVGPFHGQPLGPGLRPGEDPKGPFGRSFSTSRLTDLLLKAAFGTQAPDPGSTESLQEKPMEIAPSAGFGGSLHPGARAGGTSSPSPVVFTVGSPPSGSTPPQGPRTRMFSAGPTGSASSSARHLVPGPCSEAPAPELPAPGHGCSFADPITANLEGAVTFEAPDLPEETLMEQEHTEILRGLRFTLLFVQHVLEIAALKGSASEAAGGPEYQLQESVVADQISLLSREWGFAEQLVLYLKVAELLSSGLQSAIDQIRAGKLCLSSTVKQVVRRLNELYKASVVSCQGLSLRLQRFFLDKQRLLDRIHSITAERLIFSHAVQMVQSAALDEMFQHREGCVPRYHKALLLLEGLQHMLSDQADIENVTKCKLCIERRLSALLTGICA

## O=C(Nc1ccccc1-c1cn2c(CN3CCNCC3)csc2n1)c1cnc2ccccc2n1
[1]
  Emax: 781%
[2]
  EC1.5: 0.16 µM

## c1ccc2c(CCNCCSSCCNCCc3c[nH]c4ccccc34)c[nH]c2c1
Homo sapiens
  Activity: 30%
[3]
  EC50: 3000 nM

## Oc1ccc(/C=C/c2cc(O)cc(O)c2)cc1
[1]
  Emax: 201%

## CC(C)CN(CC(=O)N1CCN(CC(OCc2ccc3ccccc3c2)c2ccc(Cl)cc2Cl)CC1)CC(C)C (stereo unspecified)
[4]
  Activity: 243%
